In one series the test system is hTfR1. Put plainly: Western blot of hTfR1 protein in Huh7 cells co-transfected with miR-125a-5p vector. In kind it is cell-based, human. From the text: FIGS. 31A-B. Western blot (FIG. 31A) and quantitative (FIG. 31B) analysis of the cellular expression of human TfR1 after the co-transfection of the miR-125a-5p and TfR1-overexpressing vectors in Huh7 cells. No direct effect by miR-125a-5p on TfR1 expression was observed. Here miR-125a-5p was overexpressed at different plasmid DNA ratios of PCSK7: miRNA: 1:2 (2×), 1:3 (3×), and 1:5 (5×). X stands for vector DNA fold for miR-125-5p compared to vector expressing PC7.
In the next step, the effect of miR-125a-5p on PC7 function was determined. […] Thereafter, the impact of miR-125a-5p on the enzymatic function of PC7 was assessed by co-transfecting Huh7 cells with the miR-125a-5p-overexpressing vector, with that coding for the full length of PCSK7, and a plasmid encoding hTfR1 (Guillemot et al., 2013; Durand et al., 2020). […]
Subsequently, proteins were isolated with an ice-cold RIPA buffer (1×), comprising 50 mM of Tris hydrochloride (pH 8), 150 mM of sodium chloride, 0.1% sodium dodecyl sulfate, 1% Nonidet P40, 0.25% sodium deoxycholate, and a cocktail of protease inhibitors (Roche, Oakville, ON, Canada). […] Both PC7 and TfR1 were C-terminally tagged with V5 and detected with a V5-monoclonal antibody (Invitrogen) and membranes were incubated with appropriate primary and secondary antibodies, as reported (Guillemot et al., 2013). […]
A general note: A western blot detects proteins with antibodies after separation by electrophoresis.

In series [1] the test system is mutated form of PCSK7 3′-UTR. Put plainly: Luciferase reporter assay, miRNA target site-deleted PCSK7 3′-UTR, HEK293T cells. It is filed as cell-based, human. From the text: The interactions between the miRNAs and their probable targets on PCSK7 were explored by cloning the potential target regions in psiCHECK-2™ (Promega, USA), a luciferase reporter vector. In psiCHECK-2™, hRluc, the Renilla luciferase gene, is located upstream of the target regions of interest cloned into the psiCHECK-2™ vector downstream of the Renilla gene. The region corresponding to the 3′-UTR of PCSK7 (926-nt sequences in length) that constituted the predicted miRNA response elements was PCR-amplified and cloned downstream of the Renilla luciferase gene in the psiCHECK-2™ vector (Promega, USA). For the confirmation of whether miRNA response elements (miRNA target sites) on the 3′-UTR of PCSK7 were active and had direct interactions with the miRNAs, different mutants (plasmids) were constructed via splicing by over-hang-extension (SOEing) PCR. For miR-125a-5p and miR-143-3p, each of which has two miRNA response elements on PCSK7 3′-UTR, three different mutant constructs were built. Two constructs were made by deleting a putative miRNA target site, and the third one was made by omitting both putative miRNA target sites in the 3′-UTR sequence of PCSK7. In the miR-409-3p mutant construct, a putative miRNA target site was deleted from the 3′-UTR sequence.
The HEK293T cells were co-transfected through the application of the wild-type psiCHECK-2, the wild-type PCSK7 3′-UTR, the mutant PCSK7 3′-UTR, and the miR-overexpressing vectors so that the direct interactions of the nominated miRNAs with PCSK7 3′-UTR could be investigated. In brief, 150 ng of the wild-type or mutated 3′-UTR constructs and 300 ng of the miRNA-expressing vectors were co-transfected in HEK293T-cultured 48-well plates using FuGENE™ (Invitrogen, USA). Additionally, the psiCHECK-2 and pEGFP-C1 mock vectors were transfected and utilized as controls for luciferase assay and transfection, respectively. Transfection efficiency was monitored by fluorescent microscopy (Nikon TE2000S, Japan) 36 hours following the procedure.
The PsiCHECK-2 reporter construct plasmid contained the Renilla luciferase gene upstream of PCSK7 3′-UTR and an independent firefly luciferase gene as an internal control for normalization. Forty-eight hours after HEK293T co-transfection, the luciferase reporter assay was carried out employing the Dual-Luciferase Reporter Assay System (Promega, USA) with a luminometer (Titertek-Berthold, Germany) in accordance with the manufacturer's protocol. Each sample was performed in triplicate, and the experiment was repeated at least three biological times. In short, a lysis buffer was added to each well after the removal of the media of the cell. Then, LARII Reagent was added, and after 20 minutes, the firefly luciferase activity was measured as a control. Afterward, Renilla activity was determined using Stop & Glo Reagent. The relative luciferase activity was calculated using the following formula: ΔFold Activity of Luciferase (Renilla/Firefly)=Average Renilla/Firefly from Samples A/B.
A luciferase reporter assay further confirmed that miR-125a-5p, miR-143-3p, and miR-409-3p directly targeted the 3′-UTR of the PCSK7 transcript since the negative regulatory effect was lost upon the deletion of the miRNA target sites (miR-125a-5p, miR-143-3p, and miR-409-3p) on the 3′-UTR of the PCSK7 reporter plasmid (FIGS. 28A-B). In this regard, three different mutated miR plasmids were constructed for both miR-125a-5p and miR-143-3p. Single-target sites of each miRNA were omitted individually in two separate plasmids, and the two putative binding sites of the miRNAs were deleted in the other plasmid.
(In a reporter assay the amount or activity of a reporter protein is the signal.)

For “miR-125a-5p: miRNA targeting PCSK7 3′-UTR and exons 14 and 15, overexpressed from pEGFP-C1 precursor vector (UCCCUGAGACCCUUUAACCUGUGA; miRNA expressed from a pEGFP-C1 precursor vector, further chemistry not given here)”, the “expression level of the hTfR1 protein” value with hTfR1 is “exerted no effect”. In addition, the relative luciferase activity entry is on record as “still decreased” in series [1] (Mut-a, deletion of the first target site); “failed to significantly decrease” in series [1] (Mut-a,b, deletion of both miRNA target sites); “still decreased” in series [1] (Mut-b, deletion of the second target site).

(Values after patent publication US20250129370A1, “METHOD FOR REDUCING HEPATIC TRIGLYCERIDES” (ADAERATA, LIMITED PARTNERSHIP, priority 2022, published 2025).)
